Experimental findings from patent US8252832B2, “Kinesin inhibitors as cancer therapeutics” (Novartis AG, priority 2007, dated 2012) are described below.

SMILES strings stand for the structures. pEC50: −log10 of the molar value.

Holding throughout (assay): LDH release assay
What all share (type): cell-based

In one assay the test system is HT29. To be noted: Homo sapiens, HT-29. The text has this:
(§1) Identification of tumor types that are the most sensitive to the KSP inhibitors of the present invention can be accomplished using an unbiased approach that uses several cell-based assays. The assays chosen were as follows: • CellTiter-Glo®. This is an assay designed to measure ATP concentration in a cell culture, and can be correlated to cell number. Briefly CellTiter-Glo® (Promega Corporation) is a homogeneous method using the single CellTiter-Glo® reagent to detect ATP wherein ATP in the assay drives the activity of a thermostable luciferase to create a luminescent signal which can then be measured and correlated with the number of viable cells. Briefly, for adherent cells, 1,000 to 5,000 cells/well were plated in 96-well plates (100 μl/well) and let to adhere for 24 hours before being treated with drug. For non-adherent cells, 1,000 to 10,000 cells/well were plated in 96-well plates (100 μl/well) and immediately treated with drug. Drug dilutions were prepared in DMSO at 1000 times the final concentration. These dilutions were then diluted 1/100 in growth media before being added to the cells (11 μl/well) to achieve the desired final concentration. After 48 h in a 37° C. tissue culture incubator, the plates were processed for the CellTiter-Glo®assay according to the manufacturer's instructions. Protocol for a 72 hour cell proliferation assay: The 72 hour assay was performed the same way as the 48 hour assay except for the following modifications: For adherent cells, 500 to 5,000 cells/well were plated in 96-well plates (90 μl/well cell growth media) and left to adhere for 24 hours before being treated with drug. For non-adherent cells, 1,000 to 10,000 cells/well were plated in 96-well plates (90 μl/well cell growth media) and immediately treated with drug. Data values presented represent the concentration of test compound required for a 50% reduction in growth. • LDH release. The Cytotoxicity Detection KitPLUS (LDH) assay (Roche Diagnostics, Manheim, Germany) measures the amount of LDH released in the media by dying cells; LDH catalyzes the conversion of lactate into pyruvate. The enzymatic reaction is coupled to a chemical reaction that uses a tetrazolium salt to form a formazan that is red and can be detected by its absorbance at 490 nm. This assay measures the amount of cell death after drug treatment. Cells were plated at 10,000 cells/well in 96-well plates (100 μl/well). Adherent cells were let to adhere for 24 hours before being treated with drug, whereas non-adherent cells were immediately treated with drug. Drug dilutions were prepared in DMSO at 1000 times the final concentration. These dilutions were then diluted 1/100 in growth media before being added to the cells (11 μl/well) to achieve the desired final concentration. […] The media only values were subtracted from all the data points before analysis. Data values presented correspond to the compound concentration wherein LDH output is at half maximal level. • Caspase-Glo® 3/7. The Caspase-Glo® 3/7 Assay (Promega Corporation) is a homogeneous luminescent assay that measures caspase-3/7 activities. The assay provides a proluminescent caspase-3/7 DEVD-aminoluciferin substrate and a thermostable luciferase in a reagent optimized for caspase-3/7 activity, luciferase activity and cell lysis. Adding the single Caspase-Glo® 3/7 Reagent results in cell lysis, followed by caspase cleavage of the substrate. This liberates free aminoluciferin, which is consumed by the luciferase, generating a luminescent signal. The signal is proportional to caspase-3/7 activity. Data values presented correspond to the compound concentration wherein caspase 3/7 activity is at half maximal level.

A further assay has as its system HCT-116. As to conditions: Homo sapiens.
Excerpt: as §1

For a further assay, the system named is T47-D. As to conditions: Homo sapiens, T47D.
Excerpt: as §1

As a reminder, the pEC50 is the negative decadic logarithm of the EC50, by convention in mol/L. Low readings indicate a high EC50, high ones a low EC50. Consider `CC(C)(C)[C@H](c1nc(-c2cc(F)ccc2F)cn1Cc1ccccc1)N(CC[C@H](N)CF)C(=O)CO` [Compound IIa], for which the pEC50 with HT29 (HT29, 48 h) was 9.46; with HT29 (HT29, 72 h) it was 9.57; in the assay on HCT-116 (HCT-116, 24 h), 10.22; in the assay with HCT-116 (HCT-116, 48 h), 10.00; with HCT-116 (HCT-116, 72 h), 10.00; in the assay with T47-D (48 h), 9.49. In the assay on T47-D (72 h), this molecule gave a pEC50 of 9.48.
